We go through 2 compounds from patent publication US7273458B2, “Method of applying acoustic energy effective to alter transport or cell viability” (Georgia Tech Research Corporation, priority 1998, dated 2007).

The subject of the assay is Prostate tumor cells (DU-145). As to the kind of experiment: Ultrasound-mediated uptake of fluorescent markers into prostate tumor cells (flow cytometry). It counts as cell-based. Conditions: for time decay constant τ of average uptake versus time of addition after exposure: exponential fit, calcein added ≧15 s after exposure. As for the experimental part: Prostate tumor cells (DU-145) were suspended in RPMI-1640 medium with 10% fetal bovine serum at 5×10^5 cells/ml. For each experimental condition, a 3 ml polypropylene tube was filled with the cell suspension at room temperature (22±2° C.) and the top of the tube was closed without entrapping any air bubbles. The cells were exposed to ultrasound at 24 kHz in a chamber that consisted of a cylindrical piezoelectric transducer sandwiched between two PVC pipes and filled with deionized and degassed water at room temperature. Pressure, pulse length, duty cycle, and the total exposure time of ultrasound exposure were controlled. Acoustic spectra during exposure were collected using a hydrophone placed in the exposure chamber. Calcein, a green-fluorescent membrane-impermeant marker, dissolved in saline, was added to the suspensions either before or at various times after exposure at a final concentration of 10 μM. Other fluorescent markers, with different sizes, were also used to determine membrane permeability. The cells were kept at room temperature for 15 minutes after exposure, and then placed on ice until they were centrifuged and resuspended in phosphate-buffered saline with 0.1 mg/ml of propidium iodide (a red-fluorescence viability stain). Cell-by-cell fluorescence was measured using flow cytometry, and 6 μm green-fluorescence microspheres were added to each sample at a constant concentration to provide an internal volumetric standard for determining concentrations of viable cells.

Take bovine serum albumen [BSA]: the “average uptake of molecules per exposed cell, less than that of calcein” value (same external concentration (10 μM), exposure conditions of FIG. 7, P=8.0 atm) was “about 60 % less”.

Consider `O=C(O)CN(CC(=O)O)Cc1cc2c(cc1O)Oc1cc(O)c(CN(CC(=O)O)CC(=O)O)cc1C21OC(=O)c2ccccc21` [calcein], for which the “uptake when added after ultrasound exposure (lifetime of membrane disruptions)” value (calcein added at different times after exposure) is on record as “significant uptake occurred for up to two minutes after exposure”. For the same compound, the “average uptake when added 15 sec. after exposure compared to added before exposure” value (examined pressures 5.3, 7.1 and 8.0 atm) was “about 50 % less”. Also, the “time decay constant τ of average uptake versus time of addition after exposure” value (incident pressure 5.3 atm) was 78 s, the “time decay constant τ of average uptake versus time of addition after exposure” value (incident pressure 7.1 atm) was 66 s and the “time decay constant τ of average uptake versus time of addition after exposure” value (incident pressure 8.0 atm) is 56 s. Under “ultrasound 24 kHz, increasing peak incident pressure, 20 pulses of 0.1 sec, 10% duty cycle, calcein 10 μM added before exposure”, the “average cellular calcein uptake, plateau” value is reported as 20-25 % of external calcein concentration.
